Experimental data published in PubChem BioAssay AID602166 (The Scripps Research Institute Molecular Screening Center, 2012).
Activity calls are given as the source filed them. The rule behind the calls is not given here.

Molecular target: Nuclear receptor coactivator 3 (Homo sapiens) (UniProt Q9Y6Q9)
Test: NCOA3 reporter inhibition potency – cell-based, luminescence, dose response (AID 602166);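 note: potency for reduction of SRC3 reporter signal so compounds are inhibitors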
Details: SRC3 luciferase reporter cell assay

Nuclear receptor coactivator 3 (Homo sapiens), sequence (Q9Y6Q9 whole entry, looked up): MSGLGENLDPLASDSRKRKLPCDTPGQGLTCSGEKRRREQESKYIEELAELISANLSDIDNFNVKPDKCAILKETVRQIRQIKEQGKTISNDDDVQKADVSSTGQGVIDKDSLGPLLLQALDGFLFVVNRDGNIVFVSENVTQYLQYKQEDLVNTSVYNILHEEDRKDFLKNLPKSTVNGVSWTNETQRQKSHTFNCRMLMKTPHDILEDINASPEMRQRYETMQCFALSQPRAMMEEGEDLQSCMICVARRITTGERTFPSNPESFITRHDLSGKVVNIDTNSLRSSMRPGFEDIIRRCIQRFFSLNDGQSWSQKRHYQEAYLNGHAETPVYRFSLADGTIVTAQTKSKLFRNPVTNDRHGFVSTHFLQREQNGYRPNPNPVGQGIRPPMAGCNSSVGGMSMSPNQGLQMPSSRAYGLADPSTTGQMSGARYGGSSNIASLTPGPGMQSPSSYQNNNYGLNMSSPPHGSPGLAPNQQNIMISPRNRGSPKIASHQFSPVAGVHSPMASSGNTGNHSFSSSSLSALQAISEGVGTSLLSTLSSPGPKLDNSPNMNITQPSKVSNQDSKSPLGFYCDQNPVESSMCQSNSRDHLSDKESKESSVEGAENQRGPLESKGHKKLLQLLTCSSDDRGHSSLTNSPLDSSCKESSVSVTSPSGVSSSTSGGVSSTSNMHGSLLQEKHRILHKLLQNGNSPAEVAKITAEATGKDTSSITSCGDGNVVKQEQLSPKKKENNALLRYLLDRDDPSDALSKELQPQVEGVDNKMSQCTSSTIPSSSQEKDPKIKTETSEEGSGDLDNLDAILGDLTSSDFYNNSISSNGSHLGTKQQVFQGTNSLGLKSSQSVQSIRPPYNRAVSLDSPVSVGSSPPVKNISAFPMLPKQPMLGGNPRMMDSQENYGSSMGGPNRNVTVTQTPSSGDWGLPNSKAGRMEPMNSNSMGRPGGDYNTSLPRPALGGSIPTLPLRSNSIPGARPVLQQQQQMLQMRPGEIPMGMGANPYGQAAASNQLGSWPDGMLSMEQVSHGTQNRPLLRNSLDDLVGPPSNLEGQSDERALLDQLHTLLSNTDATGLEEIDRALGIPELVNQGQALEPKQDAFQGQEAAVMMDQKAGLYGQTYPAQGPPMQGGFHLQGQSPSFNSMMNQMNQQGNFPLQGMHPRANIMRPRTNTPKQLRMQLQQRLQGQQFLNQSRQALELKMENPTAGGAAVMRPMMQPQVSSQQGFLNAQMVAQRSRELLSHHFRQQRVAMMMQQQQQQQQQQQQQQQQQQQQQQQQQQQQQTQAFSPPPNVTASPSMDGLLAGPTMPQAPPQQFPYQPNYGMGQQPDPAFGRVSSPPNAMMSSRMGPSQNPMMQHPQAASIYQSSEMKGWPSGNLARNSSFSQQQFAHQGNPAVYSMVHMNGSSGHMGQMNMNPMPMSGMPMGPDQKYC

| IC50 | Compound |
| --- | --- |
| inactive | COc1cc(C(=O)N/N=C(\c2ccccc2)c2ccccn2)cc(OC)c1OC |
| > 35.9 µM (inactive) | O=C(CC1CS(=O)(=O)CC1CC(=O)Nc1ccc2c(c1)OCCO2)Nc1ccc2c(c1)OCCO2 (centres undefined) |
| inactive | CCCC(=O)NC(c1ccc(Cl)cc1Cl)c1ccc2cccnc2c1O (centres undefined) |
| 5.86 µM | O=C(Nc1cccc(C(F)(F)F)c1)Nc1nnc([C@@H]2C[C@H](O)[C@@H](CO)O2)s1 |
